Reference: ChEMBL document CHEMBL3885861, “Open TG-GATES”

Species on record: Rattus norvegicus
Experiment: Open TG-GATES - Regimen: Single
Type: toxicity, organism-based, Sprague-Dawley
Set-up: regimen Single, gender Male, age 6 weeks
Conditions: in vivo, po, 300 mg/kg, route gavage, dose level Low; for APTT / Bas / Eos / Fbg / Hb / Ht / Lym / MCH / MCHC / MCV / Mono / Neu / PT / Plat / RBC / Ret / WBC: tissue Blood; for KIDNEY_L / KIDNEY_R / KIDNEY_TOTAL: tissue Kidney; for LIVER: tissue Liver; for A/G / ALP / ALT / AST / BUN / CRE / Ca / Cl / DBIL / GLC / IP / K / LDH / Na / PL / RALB / TBIL / TC / TG / TP / gamma-GTP: tissue Plasma

## CC(=O)[C@@]1(O)CC[C@H]2[C@@H]3C=C(Cl)C4=CC(=O)CC[C@]4(C)[C@H]3CC[C@@]21C [CHLORMADINONE]
3 h
  TERMINAL_BW: 219.9 g
  APTT: 22.1 s
  Bas: 0%
  Eos: 1%
  Fbg: 310.8 mg/dL
  Hb: 13 g/dL
  Ht: 40.3%
  Lym: 75%
  MCH: 20.5 pg
  MCHC: 32.4%
  MCV: 63.3 fL
  Mono: 1.8%
  Neu: 22.4%
  PT: 15.2 s
  Plat: 115.5 x10_4/uL
  RBC: 637.8 x10_4/ul
  Ret: 7.3%
  WBC: 52.5 x10_2/uL
  KIDNEY_L: 0.9 g
  KIDNEY_R: 1 g
  KIDNEY_TOTAL: 1.9 g
  LIVER: 10.4 g
  A/G: 1.3
  ALP: 1442.2 IU/L
  ALT: 48 IU/L
  AST: 78.6 IU/L
  BUN: 16 mg/dL
  CRE: 0.2 mg/dL
  Ca: 11 mg/dL
  Cl: 105.4 meq/L
  DBIL: 0 mg/dL
  GLC: 181.4 mg/dL
  IP: 9.3 mg/dL
  K: 4.2 meq/L
  LDH: 140.6 IU/L
  Na: 143 meq/L
  PL: 147.2 mg/dL
  RALB: 3.1 g/dL
  TBIL: 0.024 mg/dL
  TC: 79.8 mg/dL
  TG: 51.6 mg/dL
  TP: 5.6 g/dL
  gamma-GTP: 1.6 IU/L
6 h
  TERMINAL_BW: 217.9 g
  APTT: 24.4 s
  Bas: 0%
  Eos: 0.8%
  Fbg: 317.6 mg/dL
  Hb: 13.1 g/dL
  Ht: 40.7%
  Lym: 77.2%
  MCH: 20.6 pg
  MCHC: 32.3%
  MCV: 63.8 fL
  Mono: 1.8%
  Neu: 20%
  PT: 15.6 s
  Plat: 106.2 x10_4/uL
  RBC: 638.2 x10_4/ul
  Ret: 7.9%
  WBC: 68.9 x10_2/uL
  KIDNEY_L: 1 g
  KIDNEY_R: 1 g
  KIDNEY_TOTAL: 2 g
  LIVER: 10.3 g
  A/G: 1.3
  ALP: 1567.8 IU/L
  ALT: 39.4 IU/L
  AST: 72.8 IU/L
  BUN: 12.6 mg/dL
  CRE: 0.1 mg/dL
  Ca: 10.5 mg/dL
  Cl: 105.8 meq/L
  DBIL: 0 mg/dL
  GLC: 181.8 mg/dL
  IP: 9.2 mg/dL
  K: 4.4 meq/L
  LDH: 159.6 IU/L
  Na: 141.4 meq/L
  PL: 134.8 mg/dL
  RALB: 3.1 g/dL
  TBIL: 0.032 mg/dL
  TC: 80.8 mg/dL
  TG: 35 mg/dL
  TP: 5.6 g/dL
  gamma-GTP: 1.8 IU/L
9 h
  TERMINAL_BW: 219.9 g
  APTT: 24.1 s
  Bas: 0%
  Eos: 0.2%
  Fbg: 325.6 mg/dL
  Hb: 13.2 g/dL
  Ht: 41%
  Lym: 79.4%
  MCH: 20.2 pg
  MCHC: 32%
  MCV: 63.1 fL
  Mono: 1%
  Neu: 18.8%
  PT: 15.6 s
  Plat: 113.9 x10_4/uL
  RBC: 651.2 x10_4/ul
  Ret: 7.9%
  WBC: 52.5 x10_2/uL
  KIDNEY_L: 1 g
  KIDNEY_R: 1 g
  KIDNEY_TOTAL: 2 g
  LIVER: 10.4 g
  A/G: 1.3
  ALP: 1458.4 IU/L
  ALT: 39.4 IU/L
  AST: 72 IU/L
  BUN: 14.2 mg/dL
  CRE: 0.1 mg/dL
  Ca: 10.8 mg/dL
  Cl: 105.4 meq/L
  DBIL: 0 mg/dL
  GLC: 201.8 mg/dL
  IP: 8.9 mg/dL
  K: 4.5 meq/L
  LDH: 153.6 IU/L
  Na: 140.6 meq/L
  PL: 152 mg/dL
  RALB: 3.2 g/dL
  TBIL: 0.026 mg/dL
  TC: 83 mg/dL
  TG: 79 mg/dL
  TP: 5.6 g/dL
  gamma-GTP: 1.6 IU/L
24 h
  TERMINAL_BW: 225.1 g
  APTT: 25.2 s
  Bas: 0%
  Eos: 1.2%
  Fbg: 336.2 mg/dL
  Hb: 13.8 g/dL
  Ht: 41.9%
  Lym: 80.4%
  MCH: 21.1 pg
  MCHC: 32.9%
  MCV: 64 fL
  Mono: 2.4%
  Neu: 15.2%
  PT: 15.5 s
  Plat: 121.2 x10_4/uL
  RBC: 654.4 x10_4/ul
  Ret: 7.7%
  WBC: 124 x10_2/uL
  KIDNEY_L: 1 g
  KIDNEY_R: 1 g
  KIDNEY_TOTAL: 2 g
  LIVER: 11 g
  A/G: 1.3
  ALP: 1795.2 IU/L
  ALT: 46.2 IU/L
  AST: 73 IU/L
  BUN: 18.8 mg/dL
  CRE: 0.2 mg/dL
  Ca: 10.6 mg/dL
  Cl: 106.4 meq/L
  DBIL: 0 mg/dL
  GLC: 184 mg/dL
  IP: 8.1 mg/dL
  K: 4.5 meq/L
  LDH: 204.8 IU/L
  Na: 141 meq/L
  PL: 169.2 mg/dL
  RALB: 3.1 g/dL
  TBIL: 0.004 mg/dL
  TC: 83.8 mg/dL
  TG: 175 mg/dL
  TP: 5.6 g/dL
  gamma-GTP: 2 IU/L
